How the values were obtained:
[1] = test system: β-catenin/TCF; assay: TCF/LEF reporter (TOP-Luciferase) assay in Wnt-dependent HCT116; format: cell-based, human
Description: (§1) See, for example: • Polakis P. Drugging Wnt signalling in cancer. EMBO J. 2012 May 22; 31(12):2737-46; Bialkowska A B, Yang V W. High-throughput screening strategies for targeted identification of therapeutic compounds in colorectal cancer. Future Oncol. 2012 March; 8(3):259-72; • Huang S M, Mishina Y M, Liu S, Cheung A, Stegmeier F, Michaud G A, Charlat O, Wiellette E, Zhang Y, Wiessner S. Hild M, Shi X, Wilson C J, Mickanin C. Myer V, Fazal A, Tomlinson R, Serluca F, Shao W, Cheng H, Shultz M, Rau C, Schirle M, Schlegl J, Ghidelli S, Fawell S, Lu C, Curtis D, Kirschner M W, Lengauer C. Finan P M, Tallarico J A, Bouwmeester T, Porter J A, Bauer A, Cong F. Tankyrase inhibition stabilizes axin and antagonizes Wnt signalling. Nature. 2009 Oct. 1; 461(7264):614-20; • Chen B, Dodge M E, Tang W, Lu J, Ma Z, Fan C W, Wei S, Hao W, Kilgore J, Williams N S, Roth M G, Amatruda J F. Chen C. Lum L. Small molecule-mediated disruption of Wnt-dependent signaling in tissue regeneration and cancer. Nat Chem. Biol. 2009 February; 5(2): 100-7; • Thorne C A, Hanson A J, Schneider J, Tahinci E, Orton D, Cselenyi C S, Jernigan K K, Meyers K C, Hang B I, Waterson A G, Kim K, Melancon B, Ghidu V P, Sulikowski G A, LaFleur B, Salic A, Lee L A, Miller D M 3rd, Lee E. Small-molecule inhibition of Wnt signaling through activation of casein kinase 1α. […]

[2] = test system: β-catenin; assay: Wnt-induced β-catenin accumulation; format: cell-based
Description: as §1

[3] = test system: mammary tumor; assay: Spontaneous mouse model of breast cancer (MMTV-Wnt1); format: in vivo; conditions: MMTV-Wnt1 tumor mice
Description: Raj L, Ide T, Gurkar A U, Foley M, Schenone M, Li X, Tolliday N J, Golub T R, Carr S A, Shamji A F, Stern A M, Mandinova A, Schreiber S L, Lee S W. Selective killing of cancer cells by a small molecule targeting the stress response to ROS. Nature. 2011 Jul. 13; 475(7355):231-4; • Huang S, Li Y, Chen Y, Podsypanina K, Chamorro M, Olshen A B, Desai K V, Tann A, Petersen D, Green J E, Varmus H E. Changes in gene expression during the development of mammary tumors in MMTV-Wnt-1 transgenic mice. Genome Biol. 2005; 6(10):R84.

[4] = test system: β-catenin; assay: Western blotting and immunoprecipitation of β-catenin forms; format: cell-based
Description: as §1, with “1α. Nat Chem. Biol. 2010 November; 6(11):829-36; • Wei W, Chua M S. Grepper S, So S. Small molecule antagonists of Tcf4/beta-catenin complex inhibit the growth of HCC cells in vitro and in vivo. Int J Cancer. 2010 May 15; 126(10):2426-36; • Lepourcelet M, Chen Y N, France D S, Wang H, Crews P, Petersen F, Bruseo C, Wood A W, Shivdasani R A. Small-molecule antagonists of the oncogenic Tcf/beta-catenin protein complex. Cancer Cell. 2004 January; 5(1):91-102; • Grossmann T N, Yeh J T, Bowman B R, Chu Q, Moellering R E, Verdine G L. Inhibition of oncogenic Wnt signaling through direct targeting of β-catenin. Proc Natl Acad Sci USA. 2012 Oct. 15.” for “1α.”

[5] = test system: Wnt/β-catenin-dependent cancer cells; assay: Cytotoxicity in Wnt/β-catenin-dependent cancer cells; format: cell-based
Description: as §1

[6] = test system: beta-catenin target gene promoters; assay: ChIP-RT-PCR of β-catenin recruitment to target promoters in HCT116 cells; format: cell-based, human
Description: as §1

[7] = test system: β-catenin/TCF-dependent genes; assay: Wnt/β-catenin target gene expression (real-time quantitative PCR, protein level); format: cell-based
Method: A. mRNA expression was measured by Real-time quantitative PCR.
as §1, with “1α. Nat Chem. Biol. 2010 November; 6(11):829-36; • Wei W, Chua M S. Grepper S, So S. Small molecule antagonists of Tcf4/beta-catenin complex inhibit the growth of HCC cells in vitro and in vivo. Int J Cancer. 2010 May 15; 126(10):2426-36; • Lepourcelet M, Chen Y N, France D S, Wang H, Crews P, Petersen F, Bruseo C, Wood A W, Shivdasani R A. Small-molecule antagonists of the oncogenic Tcf/beta-catenin protein complex. Cancer Cell. 2004 January; 5(1):91-102; • Grossmann T N, Yeh J T, Bowman B R, Chu Q, Moellering R E, Verdine G L. Inhibition of oncogenic Wnt signaling through direct targeting of β-catenin. Proc Natl Acad Sci USA. 2012 Oct. 15.” for “1α.”

[8] = test system: H23 human lung cancer cells; assay: Xenograft study, H23; format: in vivo; conditions: H23 xenograft in mice, 20 mg/kg daily i.p.
Method: (§2) A, HCT116 colon cancer cells; B, HT115 colon cancer cells; and C, H23 human lung cancer cells. 20 mg/kg was injected daily via i.p.
as §1, with “cancer.” for “cancer. Nat Chem. Biol. 2009 February; 5(2): 100-7; • Thorne C A, Hanson A J, Schneider J, Tahinci E, Orton D, Cselenyi C S, Jernigan K K, Meyers K C, Hang B I, Waterson A G, Kim K, Melancon B, Ghidu V P, Sulikowski G A, LaFleur B, Salic A, Lee L A, Miller D M 3rd, Lee E. Small-molecule inhibition of Wnt signaling through activation of casein kinase 1α.”

[9] = test system: Wnt/β-catenin-dependent cancer cells; assay: Colony formation; format: cell-based; conditions: a number of Wnt/β-catenin-dependent cancer cells
Description: as §1

[10] = test system: β-catenin; assay: β-catenin protein level and phosphorylation in HCT116 cells; format: cell-based, human
Description: as §1

[11] = test system: HCT116 colon cancer cells; assay: Xenograft study, HCT116; format: in vivo; conditions: HCT116 xenograft in mice, 20 mg/kg daily i.p.
Method: as §2
as §1, with “cancer.” for “cancer. Nat Chem. Biol. 2009 February; 5(2): 100-7; • Thorne C A, Hanson A J, Schneider J, Tahinci E, Orton D, Cselenyi C S, Jernigan K K, Meyers K C, Hang B I, Waterson A G, Kim K, Melancon B, Ghidu V P, Sulikowski G A, LaFleur B, Salic A, Lee L A, Miller D M 3rd, Lee E. Small-molecule inhibition of Wnt signaling through activation of casein kinase 1α.”

[12] = test system: Wnt/β-catenin-independent cancer cells; assay: Cytotoxicity in Wnt/β-catenin-independent cancer cells; format: cell-based
Description: as §1

[13] = test system: HT115 colon cancer cells; assay: Xenograft study, HT115; format: in vivo; conditions: HT115 xenograft in mice, 20 mg/kg daily i.p.
Method: as §2
as §1, with “cancer.” for “cancer. Nat Chem. Biol. 2009 February; 5(2): 100-7; • Thorne C A, Hanson A J, Schneider J, Tahinci E, Orton D, Cselenyi C S, Jernigan K K, Meyers K C, Hang B I, Waterson A G, Kim K, Melancon B, Ghidu V P, Sulikowski G A, LaFleur B, Salic A, Lee L A, Miller D M 3rd, Lee E. Small-molecule inhibition of Wnt signaling through activation of casein kinase 1α.”

[14] = test system: normal cells; assay: Cytotoxicity in normal cells; format: cell-based
Description: as §1

[15] = test system: H460 human lung cancer cells; assay: Wnt/b-catenin-independent tumor growth, H460; format: in vivo; conditions: Wnt/b-catenin-independent H460 tumors in mice
Description: as §1

For `COC(=O)c1cccc(NS(=O)(=O)c2ccc(C)cc2)c1` [OC0021, methyl 3-{[(4-methylphenyl)sulfonyl]amino}benzoate], the TCF/LEF reporter activity [1] was “inhibits the TCF/LEF reporter activity”, the “transcriptional activity of β-catenin/TCF” value ([1]; human colon cancer cells HCT116 with beta-catenin mutation) was “inhibits the transcriptional activity of β-catenin/TCF in a dose dependent manner” and the “Wnt-induced β-catenin accumulation” value [2] was “inhibits Wnt-induced β-catenin accumulation”. The “growth of mammary tumor” value [3] was “inhibits the growth of mammary tumor”, the “ABC (Active form of b-catenin)” value [4] was “supresses ABC” and the “expression of oncogene Myc target gene” value [4] was “inhibits the expression of oncogene Myc target gene”. The “phosphorylated β-catenins (phospho-β-catenin-33/37/41; -41/45)” value [4] was “increases phosphorylated β-catenins”, the cytotoxic effect [5] was “cytotoxic effect” and the “beta-catenin binding its target gene promoters” value [6] was “inhibits beta-catenin binding its target gene promoters”. For the same compound, the “protein level of endogenous β-catenin/TCF-dependent genes, Cyclin D1 and c-Myc” value [7] was “down regulates the protein level”, the “stability of Axin1 and Axin2” value [7] was “enhances stability of Axin1 and Axin2” and the “Wnt/β-catenin-mediated gene transcription (mRNA expression of Myc, cyclin D1, Axin1 and 2)” value ([7]; Real-time quantitative PCR) was “modulates Wnt/β-catenin-mediated gene transcription”. The anti-tumor activity [8] was “anti-tumor activity”, the colony formation [9] was “inhibits colony formation” and the beta-catenin protein levels ([10]; HCT116 cells) was “decreases beta-catenin protein levels”. For the same compound, the “β-catenin degradation / phosphorylation at T41/S45” value ([10]; HCT116 colon cancer cells) was “promotes β-catenin degradation via increased β-catenin phosphorylation at T41/S45”, the anti-tumor activity [11] was “anti-tumor activity” and the cytotoxic effect [12] was “no significant cytotoxic”. The anti-tumor activity [13] was “anti-tumor activity”, the cytotoxic effect [14] was “no significant cytotoxic” and the tumor growth [15] was “does not affect”.

— patent publication US9469606B2, “Wnt/b-catenin inhibitors and methods of use” (The General Hospital Corporation, priority 2011, dated 2016)
